In patent US6855730B2, “3-methylidenyl-2-indolinone modulators of protein kinase” (Sugen, Inc., priority 1998, dated 2005):

How the values were obtained:
PDGFR-β = molecular target: T1, PDGFR-β (Homo sapiens, UniProt P09619); assay: Biochemical PDGFR assay (ELISA, PDGFR-β expressing NIH 3T3 cell lysate); conditions: read-out: bio PDGF IC50
T1 construct: host or cells: NIH 3T3
Summary of the method: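 Phosphorylation was read by ELISA (anti-phosphotyrosine serum, peroxidase secondary, ABTS at 410 nm) after a 30 min room-temperature reaction with 20 μM ATP, EDTA-stopped. Kinase was lysate-derived PDGFR-β (NIH 3T3) immobilised via 28D4C10 antibody, compound added 30 min before ATP.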

pyk2 = pyk2 (Homo sapiens, UniProt Q14289); assay: bio pyk2 assay; format: biochemical
Sequence of pyk2 (Q14289 whole entry, species assumed): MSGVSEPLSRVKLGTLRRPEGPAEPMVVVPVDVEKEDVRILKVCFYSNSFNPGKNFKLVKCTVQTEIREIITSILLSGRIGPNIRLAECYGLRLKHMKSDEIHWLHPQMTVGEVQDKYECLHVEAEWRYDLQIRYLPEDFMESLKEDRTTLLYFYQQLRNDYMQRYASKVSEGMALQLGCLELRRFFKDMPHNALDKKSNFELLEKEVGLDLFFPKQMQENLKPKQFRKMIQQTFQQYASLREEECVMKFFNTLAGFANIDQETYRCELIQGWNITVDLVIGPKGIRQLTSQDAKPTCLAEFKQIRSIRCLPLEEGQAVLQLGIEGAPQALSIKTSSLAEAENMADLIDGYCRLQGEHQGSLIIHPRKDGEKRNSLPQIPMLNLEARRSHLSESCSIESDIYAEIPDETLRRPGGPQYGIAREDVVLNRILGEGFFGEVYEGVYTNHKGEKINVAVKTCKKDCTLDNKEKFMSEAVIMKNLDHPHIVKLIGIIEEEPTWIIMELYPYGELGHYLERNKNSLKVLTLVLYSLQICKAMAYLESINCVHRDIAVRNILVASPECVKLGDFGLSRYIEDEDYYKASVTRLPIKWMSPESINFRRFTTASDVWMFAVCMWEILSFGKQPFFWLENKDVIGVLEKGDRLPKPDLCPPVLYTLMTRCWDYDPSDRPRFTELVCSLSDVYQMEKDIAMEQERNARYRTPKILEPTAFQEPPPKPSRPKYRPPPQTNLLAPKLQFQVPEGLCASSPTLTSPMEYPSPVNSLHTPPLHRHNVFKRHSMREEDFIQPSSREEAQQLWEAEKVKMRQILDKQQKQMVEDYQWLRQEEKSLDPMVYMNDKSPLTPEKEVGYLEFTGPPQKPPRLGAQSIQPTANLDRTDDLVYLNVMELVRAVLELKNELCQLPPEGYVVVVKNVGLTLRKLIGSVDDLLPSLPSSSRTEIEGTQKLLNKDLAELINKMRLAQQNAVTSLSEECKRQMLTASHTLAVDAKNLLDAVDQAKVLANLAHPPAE

T1 sequence (P09619 33-1106): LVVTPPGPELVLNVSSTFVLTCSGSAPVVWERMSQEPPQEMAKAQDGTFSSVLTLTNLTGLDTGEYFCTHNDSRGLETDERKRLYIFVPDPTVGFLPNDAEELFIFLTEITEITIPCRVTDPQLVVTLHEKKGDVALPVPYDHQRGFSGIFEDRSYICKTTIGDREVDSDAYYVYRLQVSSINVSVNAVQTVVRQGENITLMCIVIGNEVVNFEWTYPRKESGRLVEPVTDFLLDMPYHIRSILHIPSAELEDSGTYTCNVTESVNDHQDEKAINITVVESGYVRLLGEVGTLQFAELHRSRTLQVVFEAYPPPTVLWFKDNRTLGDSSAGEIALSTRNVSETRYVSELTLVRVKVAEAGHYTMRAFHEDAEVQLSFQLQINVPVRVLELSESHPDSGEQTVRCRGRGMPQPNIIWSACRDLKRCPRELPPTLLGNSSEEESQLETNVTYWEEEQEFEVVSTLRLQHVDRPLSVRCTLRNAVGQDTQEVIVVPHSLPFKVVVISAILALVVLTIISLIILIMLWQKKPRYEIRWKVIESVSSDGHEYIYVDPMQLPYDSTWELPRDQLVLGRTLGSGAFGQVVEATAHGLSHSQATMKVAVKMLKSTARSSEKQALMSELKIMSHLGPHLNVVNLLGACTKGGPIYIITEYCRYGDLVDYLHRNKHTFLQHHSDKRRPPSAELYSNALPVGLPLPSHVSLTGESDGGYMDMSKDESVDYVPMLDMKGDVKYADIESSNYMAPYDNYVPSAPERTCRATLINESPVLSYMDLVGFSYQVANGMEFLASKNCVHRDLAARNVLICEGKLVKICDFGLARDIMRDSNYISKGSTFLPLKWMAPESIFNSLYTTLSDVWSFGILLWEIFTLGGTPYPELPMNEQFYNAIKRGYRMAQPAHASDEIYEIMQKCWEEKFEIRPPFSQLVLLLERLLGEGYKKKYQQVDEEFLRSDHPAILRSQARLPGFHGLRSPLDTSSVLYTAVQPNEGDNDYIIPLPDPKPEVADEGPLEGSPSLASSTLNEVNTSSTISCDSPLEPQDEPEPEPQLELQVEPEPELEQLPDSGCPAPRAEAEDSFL

| Structure (SMILES) | IC50 (PDGFR-β) [µM] | IC50 (pyk2) [µM] |
| --- | --- | --- |
| Cc1ccc2c(c1)/C(=C/c1[nH]c3c(c1CCC(=O)O)CCCC3)C(=O)N2 [Example 194, 3-[2-(5-Methyl-2-oxo-1,2-dihydroindol-3-ylidenemethyl)-4,5,6,7-tetrahydro-1H-indol-3-yl]-propionic acid] | 81.4 | 4.09 |
| COc1ccc2c(c1)/C(=C/c1[nH]cc(C)c1CCC(=O)O)C(=O)N2 [Example 222, 3-[2-(5-Methoxy-2-oxo-1,2-dihydroindol-3-ylidenemethyl)-4-methyl-1H-pyrrol-3-yl]-propionic acid] | 3.75 |  |
| CNC(=O)CCc1c(/C=C2\C(=O)Nc3ccccc32)[nH]c2c1CCCC2 [Example 201, N-Methyl-3-[2-(2-oxo-1,2-dihydroindol-3-ylidenemethyl)-4,5,6,7-tetrahydro-1H-indol-3-yl]-propionamide] | 1.73 | 6.61 |
| O=C(O)CCc1c(/C=C2\C(=O)Nc3cc(-c4ccccc4)ccc32)[nH]c2c1CCCC2 [Example 206, 3-[2-(2-oxo-6-phenyl-1,2-dihydroindol-3-ylidenemethyl)-4,5,6,7-tetrahydro-1H-indol-3-yl]-propionic acid] | 0.04 |  |
| COc1cccc(-c2ccc3c(c2)NC(=O)/C3=C\c2[nH]cc(C)c2CCC(=O)O)c1 [Example 223, 3-{2-[6-(3-Methoxyphenyl)-2-oxo-1,2-dihydro-indol-3-ylidenemethyl]-4-methyl-1H-pyrrol-3-yl}-propionic acid] | 0.781 |  |
| Cc1[nH]c2ccccc2c1/C=C1\C(=O)Nc2ccc(C(=O)O)cc21 [Example 182, 3-(2-Methyl-1H-indol-3-ylmethylene)-2-oxo-2,3-dihydro-1H-indole-5-carboxylic acid] | 5.4 | 37.1 |
| Cc1c(/C=C2\C(=O)Nc3ccc(N)cc32)[nH]c2ccccc12 [Example 180, 5-Amino-3-(3-methyl-1H-indol-2-ylmethylene)-1,3-dihydroindol-2-one] | 1.11 | < 0.78 |
| COc1ccc2c(c1)NC(=O)/C2=C\c1[nH]c2c(c1CCC(=O)O)CCCC2 [Example 196, 3-[2-(6-Methoxy-2-oxo-1,2-dihydroindol-3-ylidenemethyl)-4,5,6,7-tetrahydro-1H-indol-3-yl]-propionic acid] | 33.7 | 2.37 |
| Nc1ccc2c(c1)/C(=C/c1ccc3[nH]ccc3c1)C(=O)N2 [Example 179, 5-Amino-3-(1H-indol-5-ylmethylene)-1,3-dihydro-indol-2-one] | > 100 | > 100 |
| Cc1c[nH]c(/C=C2\C(=O)Nc3ccc(Cl)cc32)c1CCC(=O)O [Example 216, 3-[2-(5-Chloro-2-oxo-1,2-dihydroindol-3-ylidenemethyl)-4-methyl-1H-pyrrol-3-yl]-propionic acid] | 0.22 | 23.9 |
| COc1ccc2c(c1)NC(=O)/C2=C\c1[nH]cc(C)c1CCC(=O)O [Example 217, 3-[2-(6-Methoxy-2-oxo-1,2-dihydroindol-3-ylidenemethyl)-4-methyl-1H-pyrrol-3-yl]-propionic acid] | 0.21 | 2.89 |
| O=C(O)CCc1c(/C=C2\C(=O)Nc3ccc(Br)cc32)[nH]c2c1CCCC2 [Example 192, 3-[2-(5-Bromo-2-oxo-1,2-dihydroindol-3-ylidenemethyl)-4,5,6,7-tetrahydro-1H-indol-3yl]-propionic acid] | 0.004 | 4.87 |
| CCOC(=O)c1c(C)[nH]c(/C=C2\C(=O)Nc3ccc(Br)cc32)c1CCC(=O)O [Compound 114, 5-(5-Bromo-2-oxo-1,2-dihydroindol-3-ylidenemethyl)-4-(2-carboxyethyl)-2-methyl-1H-pyrrole-3-carboxylic acid ethyl ester] | 0.05 |  |
| CN(C)CCCc1c(/C=C2\C(=O)Nc3ccccc32)[nH]c2c1CCCC2 [Example 198, 3-[3-(3-Dimethylaminopropyl)-4,5,6,7-tetrahydro-1H-indol-2-ylmethylene]-1,3-dihydroindol-2-one] | 0.04 | 1.5 |
| Cc1cc(CCC(=O)O)c(/C=C2\C(=O)Nc3ccc(Br)cc32)[nH]1 [Compound 116, 3-[2-(5-Bromo-2-oxo-1,2-dihydroindol-3-ylidenemethyl)-5-methyl-1H-pyrrol-3-yl]-propionic acid] | 0.02 |  |
| Cc1c[nH]c(/C=C2\C(=O)Nc3cccc(C)c32)c1CCC(=O)O [Example 218, 3-[2-(4-Methyl-2-oxo-1,2-dihydroindol-3-ylidenemethyl)-4-methyl-1H-pyrrol-3-yl]-propionic acid] | 2.11 | 32.3 |
| CNS(=O)(=O)c1ccc2c(c1)/C(=C/c1cc3ccccc3[nH]1)C(=O)N2 [Example 173, 3-(1H-Indol-2-ylmethylene)-2-oxo-2,3-dihydro-1H-indole-5-sulfonic acid methylamide] | 69.1 | 9.8 |
| NS(=O)(=O)c1ccc2c(c1)/C(=C/c1c[nH]c3ccccc13)C(=O)N2 [Example 172, 3-(1H-Indol-3-ylmethylene)-2-oxo-2,3-dihydro-1H-indole-5-sulfonic acid amide] | 89.4 | 14.8 |

| Structure (SMILES) | IC50 (PDGFR-β) [µM] | IC50 (pyk2) [µM] |
| --- | --- | --- |
| O=C(O)CCc1c(/C=C2\C(=O)Nc3ccccc32)[nH]c2c1CCCC2 [Example 190, 3-[2-(2-Oxo-1,2-dihydro-indol-3-ylidenemethyl)-4,5,6,7-tetrahydro-1H-indol-3-yl]-propionic acid] | 2.08 | < 0.78 |
| O=C1Nc2ccc(C(=O)O)cc2/C1=C/c1c[nH]c2ccccc12 [Example 174, 3-(1H-Indol-3-ylmethylene)-2-oxo-2,3-dihydro-1H-indole-5-carboxylic acid] | 2.5 | 2.57 |
| CC(C)NS(=O)(=O)c1ccc2c(c1)C(=Cc1[nH]c3c(c1CCC(=O)O)CCCC3)C(=O)N2 [Example 208, 3-[2-(5-Isopropylaminosulfonyl-2-oxo-1,2-dihydroindol-3-ylidenemethyl)-4,5,6,7-tetrahydro-1H-indol-3-yl]-propionic acid] | 23.4 | 0.13 |
| COc1c(C(C)C)cc(/C=C2/C(=O)Nc3ccccc32)cc1C(C)C [Example 1, 3-(3,5-Diisopropyl-4-methoxybenzylidene)-1,3-dihydroindol-2-one] | > 100 |  |
| Cc1[nH]c2ccccc2c1/C=C1\C(=O)Nc2ccc(N)cc21 [Example 187, 5-Amino-3-(2-methyl-1H-indol-3-ylmethylene)-1,3-dihydroindol-2-one] | > 100 | 75.8 |
| O=C(O)CCc1ccccc1/C=C1/C(=O)Nc2ccccc21 [Example 214, 3-[2-(2-Oxo-1,2-dihydroindol-3-ylidenemethyl)-phenyl]-propionic acid] | > 100 |  |
| CCOc1cccc(-c2ccc3c(c2)NC(=O)/C3=C\c2[nH]cc(C)c2CCC(=O)O)c1 [Example 224, 3-{2-[6-(3-Ethoxyphenyl)-2-oxo-1,2-dihydro-indol-3-ylidenemethyl]-4-methyl-1H-pyrrol-3-yl}-propionic acid] | 2.38 |  |
| O=C(O)CCc1c(/C=C2\C(=O)Nc3ccc(Cl)cc32)[nH]c2c1CCCC2 [Example 191, 3-[2-(5-Chloro-2-oxo-1,2-dihydroindol-3-ylidenemethyl)-4,5,6,7-tetrahydro-1H-indol-3-yl]-propionic acid] | 0.05 | 68.5 |
| Cc1c[nH]c(C=C2C(=O)Nc3cc(Cl)ccc32)c1CCC(=O)O [Example 219, 3-[2-(6-Chloro-2-oxo-1,2-dihydroindol-3-ylidenemethyl)-4-methyl-1H-pyrrol-3-yl]-propionic acid] | 0.47 | 4.15 |
| NC(=O)CCc1c(/C=C2\C(=O)Nc3ccccc32)[nH]c2c1CCCC2 [Example 199, 3-[2-(2-Oxo-1,2-dihydroindol-3-ylidenemethyl)-4,5,6,7-tetrahydro-1H-indol-3-yl]-propionamide] | 0.89 | 2.83 |
| COc1c(C(C)C)cc(/C=C2/C(=O)Nc3ccc(Cl)cc32)cc1C(C)C [Example 2, 5-Chloro-3-(3,5-diisopropyl-4-methoxybenzylidene)-1,3-dihydroindol-2-one] | > 100 |  |
| O=C1Nc2ccccc2/C1=C/c1[nH]c2c(c1CCC(=O)N1CCOCC1)CCCC2 [Example 200, 3-[3-(3-Morpholin-4-yl-3-oxopropyl)-4,5,6,7-tetrahydro-1H-indol-2-ylmethylene]-1,3-dihydroindol-2-one] | 11.8 | 5.62 |
| O=C1Nc2ccc(N=Cc3cc4ccccc4[nH]3)cc2C1=Cc1cc2ccccc2[nH]1 [Example 171, 3-(1H-indol-2-ylmethylene)-5-[(1H-indol-2-ylmethylene)-amino]-1,3-dihydroindol-2-one] | 68.6 |  |
| COc1cccc(-c2ccc3c(c2)NC(=O)/C3=C\c2[nH]c3c(c2CCC(=O)O)CCCC3)c1 [Example 204, 3-{2-[6-(3-Methoxyphenyl)-2-oxo-1,2-dihydro-indol-3-ylidenemethyl]-4,5,6,7-tetrahydro-1H-indol-3-yl}-propionic acid] | 0.68 |  |
| COc1ccc(-c2ccc3c(c2)NC(=O)/C3=C\c2[nH]c3c(c2CCC(=O)O)CCCC3)cc1 [Example 205, 3-{2-[6-(4-Methoxyphenyl)-2-oxo-1,2-dihydro-indol-3-ylidenemethyl]-4,5,6,7-tetrahydro-1H-indol-3-yl}-propionic acid] | 5.43 |  |
| O=C(O)CCc1c(/C=C2\C(=O)Nc3ncccc32)[nH]c2c1CCCC2 [Example 203, 3-[2-(2-Oxo-1,2-dihydropyrrolo[2,3-b]pyridin-3-ylidenemethyl)-4,5,6,7-tetrahydro-1H-indol-3-yl]-propionic acid] | 0.15 |  |
| O=C(CCc1c(/C=C2\C(=O)Nc3ccccc32)[nH]c2c1CCCC2)NCCN1CCOCC1 [Example 202, N-(2-Morpholin-4-ylethyl)-3-[2-(2-oxo-1,2-dihydroindol-3-ylidenemethyl)-4,5,6,7-tetrahydro-1H-indol-3-yl]-propionamide] | 9.58 |  |
